The record followed here is US20120190017A1, “POLYMORPHISMS IN THE HUMAN GENE FOR THE MULTIDRUG RESISTANCE-ASSOCIATED PROTEIN 1 (MRP-1) AND THEIR USE IN DIAGNOSTIC AND THERAPEUTIC APPLICATIONS” (priority 2001, published 2012).

In the assay the test system is MRP-1 mRNA. The experiment in a line: MRP-1 mRNA content in duodenal biopsies from healthy volunteers before and after application of rifampicin. It counts as in vivo, human. The following applies: before (A) vs after (B) application of rifampicin, paired T-test p<0.001. The source says: FIG. 3: Diagram 1A and 1B represent the correlation of the genotype (wt/wt: 1; wt/mut and mut/mut:2) with MRP-1 mRNA content in duodenal biopsies from healthy volunteers derived from two independent experiments, before (A) and after (B) application of rifampicin. The p-value of the statistical evaluation (Kruskal-Wallis-Test), which result in a genotyp/phenotype correlation is p=0.086. […] Thus, the differences in the MRP-1 mRNA content are based on interindividual differences. The statistical analyses were performed using the computer program SPSS 10.0 (SPSS, Chicago, USA).
Functional polymorphisms in the MRP-1 gene (see tables in examples 2 and 4) affect the transport activity and subsequently the levels of drugs which are substrates of MRP-1. […] Three different patient collectives, two show side effects during drug therapy and one for which the MRP-1 mRNA levels had been defined, were analyzed to determine whether MRP-1 polymorphisms correlate with transporter activity and subsequently with alterations in drug activities and side effects. […] For this purpose, the 3 collectives (collective 1: samples with nephrotoxicities after cisplatin therapy; collective 2: liver and kidney side effects; collective 3: samples with defined high or low MRP-1 mRNA levels) were screened for all MRP-1 gene fragments, in which the new SNP's could be detected. […]

On to `CO[C@H]1/C=C/O[C@@]2(C)Oc3c(C)c(O)c4c(O)c(c(/C=N/N5CCN(C)CC5)c(O)c4c3C2=O)NC(=O)/C(C)=C\C=C\[C@H](C)[C@H](O)[C@@H](C)[C@@H](O)[C@@H](C)[C@H](OC(C)=O)[C@@H]1C` [rifampicin], for which the “effect on MRP-1 mRNA expression” value is listed as “no effect”.
